In patent EP0626016B1, “[…] […]” (BRITISH TECHNOLOGY GROUP LIMITED, priority 1992, dated 1993):

Experiments:
HRP Type VIA = molecular target: T1, HRP Type VIA (Armoracia rusticana, UniProt P00433); assay: Effect of PBBA amount on the luminol or isoluminol-H2O2-HRP chemiluminescent reaction (Example 1, part 1); format: biochemical, horseradish; settings: for Signal (no HRP) / Signal (with HRP): after 5 minutes
T1 sequence (P00433 31-338): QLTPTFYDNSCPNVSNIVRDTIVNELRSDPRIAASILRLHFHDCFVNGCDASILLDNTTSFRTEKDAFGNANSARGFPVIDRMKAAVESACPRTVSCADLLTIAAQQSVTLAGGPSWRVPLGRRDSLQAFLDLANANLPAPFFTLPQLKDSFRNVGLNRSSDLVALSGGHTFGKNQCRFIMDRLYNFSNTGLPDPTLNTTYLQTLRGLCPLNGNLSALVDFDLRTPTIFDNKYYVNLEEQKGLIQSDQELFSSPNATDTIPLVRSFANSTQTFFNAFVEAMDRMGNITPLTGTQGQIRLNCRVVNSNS
Procedure: PBBA was added in various concentrations (range 0.05µg to 0.5µg) to a luminol-H2O2 reaction in the presence and absence of HRP. […] These two solutions were combined and protected from light. The luminol-hydrogen peroxide reagent (100µl of a 1:10 dilution) was added to a cuvette together with either 10µl of HRP Type VI A (HRP, Sigma Chemical Co., 1:50,000 dilution) or as a control 10µl of Tris Buffer (0.1mol/l, pH 8.6), and various amounts of PBBA (Aldrich Chemical Co.), range 0.05µg-0.5µg in 0.1mol/l Tris, pH 8.6). The reagents were mixed and the light emission recorded after 5 minutes on a Berthold Biolumat LB9500C.
This experiment was repeated, replacing the luminol with isoluminol. […]

HRP Type VII = assay: PBBA enhancement with different peroxidase enzymes (Example 4); format: biochemical, horseradish; settings: for Signal Reagent with PBBA: 40µl of PBBA 0.01mg/ml
[1] = molecular target: T2, Arthromyces ramosus peroxidase (Arthromyces ramosus, UniProt P28313); assay: as above; format: biochemical
T2 sequence (P28313 21-364): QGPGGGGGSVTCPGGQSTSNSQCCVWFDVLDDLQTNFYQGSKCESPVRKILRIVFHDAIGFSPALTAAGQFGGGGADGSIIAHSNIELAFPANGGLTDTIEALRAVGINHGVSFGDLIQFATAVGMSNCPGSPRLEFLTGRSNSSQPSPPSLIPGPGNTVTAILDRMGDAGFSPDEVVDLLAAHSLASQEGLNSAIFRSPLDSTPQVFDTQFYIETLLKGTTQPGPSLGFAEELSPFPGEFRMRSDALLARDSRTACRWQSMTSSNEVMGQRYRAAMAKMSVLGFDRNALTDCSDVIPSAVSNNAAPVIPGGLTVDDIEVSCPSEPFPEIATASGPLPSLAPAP
Procedure: Stock solutions (1mg/ml in 0.1mol/l Tris buffer, pH 8.6) of horseradish peroxidase Type VII, Type VIII and Arthromyces ramosus peroxidase (Sigma) were prepared. The luminol-hydrogen peroxide reagent was prepared as described previously. Luminol-hydrogen peroxide reagent (100µl, 1:10 dilution), either 40µl of PBBA (0.01mg/ml in 0.1mol/l Tris buffer, pH 8.6) or as a control, 40µl of Tris buffer (0.1mol/l, pH 8.6), and 10µl of HRP Type VII (1:50,000 dilution, 2ng) were added to a cuvette. The reagents were mixed and the light emission was recorded after 5 minutes using a Berthold Biolumat LB9500C.
The above experiment was repeated and the HRP Type VII was replaced by HRP Type VIII (2ng) or Arthromyces ramosus peroxidase (20pg).

[2] = molecular target: T3, Anti-mouse IgG (whole molecule) peroxidase conjugate (Armoracia rusticana, UniProt P00433); assay: Assay of peroxidase-antibody conjugate utilizing PBBA (Example 5); format: biochemical; settings: for Signal (with PBBA): 40µl of PBBA 0.01 mg/ml; for Signal: Background: with PBBA
T3 sequence (P00433 31-338 limits assumed): T1 sequence (P00433 31-338)
Procedure: Anti-mouse IgG (whole molecule) peroxidase conjugate (Sigma Chemical Co.) was diluted (1:5000) in 0.1 mol/l Tris buffer (pH 8.6). The luminol-hydrogen peroxide was prepared as described previously. The following reagents were added to a cuvette: 100µl of luminol-hydrogen peroxide (1:10 dilution), either 40µl of PBBA (0.01 mg/ml in 0.1 mol/l Tris buffer) or as a control, 40µl of Tris buffer (0.1 mol/l, pH 8.6), and different amounts of anti-mouse IgG (5µl, 10µl, 20µl, 30µl, 40µl). The reagents were mixed and the light emission was measured using a Berthold Biolumat LB9500C.

[3] = in the presence of PBBA, result in words

SMILES: OB(O)c1ccc(Br)cc1 [PBBA, para-bromophenylboronic acid]
- light emission in the luminol-HRP-peroxidase reaction (HRP Type VIA; Column (a), result in words): enhances the light emission
- background level of luminescence (HRP Type VIA; Column (b), result in words): reduces the background level of luminescence
- Signal: Background ratio (HRP Type VIA; Isoluminol, PBBA 0.05 µg): 2.1
- Signal (no HRP) (HRP Type VIA; Isoluminol, PBBA 0.05 µg): 7664
- Signal (with HRP) (HRP Type VIA; Isoluminol, PBBA 0.05 µg): 15,772
- Signal: Background ratio (HRP Type VIA; Isoluminol, PBBA 0.1 µg): 2.7
- Signal (no HRP) (HRP Type VIA; Isoluminol, PBBA 0.1 µg): 6114
- Signal (with HRP) (HRP Type VIA; Isoluminol, PBBA 0.1 µg): 16,553
- Signal: Background ratio (HRP Type VIA; Isoluminol, PBBA 0.2 µg): 11.9
- Signal (no HRP) (HRP Type VIA; Isoluminol, PBBA 0.2 µg): 5736
- Signal (with HRP) (HRP Type VIA; Isoluminol, PBBA 0.2 µg): 68,282
- Signal: Background ratio (HRP Type VIA; Isoluminol, PBBA 0.3 µg): 110.4
- Signal (no HRP) (HRP Type VIA; Isoluminol, PBBA 0.3 µg): 5613
- Signal (with HRP) (HRP Type VIA; Isoluminol, PBBA 0.3 µg): 619,880
- Signal: Background ratio (HRP Type VIA; Isoluminol, PBBA 0.4 µg): 147.0
- Signal (no HRP) (HRP Type VIA; Isoluminol, PBBA 0.4 µg): 5278
- Signal (with HRP) (HRP Type VIA; Isoluminol, PBBA 0.4 µg): 775,965
- Signal: Background ratio (HRP Type VIA; Luminol, PBBA 0.05 µg): 6.1
- Signal (no HRP) (HRP Type VIA; Luminol, PBBA 0.05 µg): 16,556
- Signal (with HRP) (HRP Type VIA; Luminol, PBBA 0.05 µg): 101,227
- Signal: Background ratio (HRP Type VIA; Luminol, PBBA 0.1 µg): 6.7
- Signal (no HRP) (HRP Type VIA; Luminol, PBBA 0.1 µg): 16,065
- Signal (with HRP) (HRP Type VIA; Luminol, PBBA 0.1 µg): 108,213
- Signal: Background ratio (HRP Type VIA; Luminol, PBBA 0.2 µg): 8.1
- Signal (no HRP) (HRP Type VIA; Luminol, PBBA 0.2 µg): 13,890
- Signal (with HRP) (HRP Type VIA; Luminol, PBBA 0.2 µg): 112,644
- Signal: Background ratio (HRP Type VIA; Luminol, PBBA 0.3 µg): 11.2
- Signal (no HRP) (HRP Type VIA; Luminol, PBBA 0.3 µg): 10,899
- Signal (with HRP) (HRP Type VIA; Luminol, PBBA 0.3 µg): 122,116
- Signal: Background ratio (HRP Type VIA; Luminol, PBBA 0.4 µg): 12.5
- Signal (no HRP) (HRP Type VIA; Luminol, PBBA 0.4 µg): 10,706
- Signal (with HRP) (HRP Type VIA; Luminol, PBBA 0.4 µg): 133,401
- Signal: Background ratio (HRP Type VIA; Luminol, PBBA 0.5 µg): 16.9
- Signal (no HRP) (HRP Type VIA; Luminol, PBBA 0.5 µg): 8,963
- Signal (with HRP) (HRP Type VIA; Luminol, PBBA 0.5 µg): 151,572
- Signal Reagent with PBBA (HRP Type VII; Blank (no peroxidase)): 27,820
- Signal Reagent with PBBA (HRP Type VII; HRP Type VII 2ng, after 5 minutes): 49,703
- Signal: Background (HRP Type VII; HRP Type VII, with PBBA): 1.8
- level of light output (HRP Type VII; any of the peroxidases tested (HRP Type VII, Type VIII, Arthromyces ramosus peroxidase), result in words): did not increase the level of light output
- signal to background ratio (HRP Type VII; in all cases (HRP Type VII, Type VIII, Arthromyces ramosus peroxidase), result in words): improved in all cases
- Signal Reagent with PBBA ([1]; Arthromyces ramosus peroxidase 20pg, 40µl of PBBA 0.01mg/ml, after 5 minutes): 58,208
- Signal: Background ([1]; Arthromyces ramosus peroxidase, with PBBA): 2.1
- Signal (with PBBA) ([2]; Anti-mouse IgG-HRP 0 (µl)): 18,832
- Signal (with PBBA) ([2]; Anti-mouse IgG-HRP 5 (µl), 1:5000 dilution): 27,665
- Signal: Background ([2]; Anti-mouse IgG-HRP 5 (µl)): 1.5
- Signal (with PBBA) ([2]; Anti-mouse IgG-HRP 10 (µl), 1:5000 dilution): 32,849
- Signal: Background ([2]; Anti-mouse IgG-HRP 10 (µl)): 1.7
- Signal (with PBBA) ([2]; Anti-mouse IgG-HRP 20 (µl), 1:5000 dilution): 68,994
- Signal: Background ([2]; Anti-mouse IgG-HRP 20 (µl)): 3.7
- Signal (with PBBA) ([2]; Anti-mouse IgG-HRP 30 (µl), 1:5000 dilution): 407,087
- Signal: Background ([2]; Anti-mouse IgG-HRP 30 (µl)): 21.6
- light emission [2, 3]: increased
- signal to background ratio for the assay of the HRP conjugate [2, 3]: significantly improved
